The source of these data is PubChem BioAssay (NCI).

Assay in all cases: inhibition of tumour cell growth, NCI panel, 48 h
Assay [1] concerns K-562 leukemia.
Assay [2] relates to HOP-92 NSCLC.
Assay [3] has as its system A498 renal.
Assay [4] has as its system OVCAR-8 ovarian.
For assay [5], the system named is IGROV1 ovarian.
Assay [6] relates to SR leukemia.
The test system of assay [7] is OVCAR-5 ovarian.
Assay [8] deals with LOX IMVI melanoma.
In assay [9] the test system is DU-145 prostate.
Assay [10] concerns PC-3 prostate.

Molecules are shown by their SMILES.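 Method: 48-hour compound exposure of cells in 96-well plates, five concentrations, linear interpolation of endpoints. The concentration for 50% growth inhibition is given as GI50. TGI marks complete inhibition of growth.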 A value given as a limit tells only on which side of the number the result lay.

Take `COC(=O)C(CC(=O)Nc1ccc(C)cc1)C(=O)C(=O)Nc1ccccc1C(C)C` (stereo unspecified): the TGI in assay [1], in assay [2], in [3], in [4], in assay [5] and in assay [6] was greater than 100 µM each time. In addition, the TGI in assay [7] and in [8] was greater than 100 µM in each case.
In the case of `Fc1cc2[nH]ncc2c2c3c(c(-c4cn[nH]c4C(F)(F)F)nc12)C1CCC3C1` (stereo unspecified), the GI50 in assay [1] is 1.61 µM; in [2] it was 0.885 µM; in assay [3] it was 0.591 µM; in assay [4] it was 1.21 µM; in assay [9] it was 1.12 µM; in assay [5] it was 0.994 µM. The GI50 in assay [6] is 0.645 µM; in assay [7] it was 1.19 µM; in assay [8], 0.818 µM. Also, the TGI in assay [1] was greater than 50 µM; in assay [2], 3.04 µM; in assay [3], 1.25 µM; in assay [4] it was 6.74 µM; in [9] it was 7.52 µM; in [5], 3.77 µM. The values for the TGI in assay [6], in assay [7] and in [8] were greater than 50 µM, 3.72 µM and 3.33 µM, respectively.
For `CCCCN(CCCC)c1c([N+](=O)[O-])c(=O)nc2ccccn12`, the TGI is greater than 100 µM in [1]; greater than 100 µM in assay [2]; 48.2 µM in [3]; 94.6 µM in assay [4]; greater than 100 µM in assay [5]; greater than 100 µM in [6]. Besides, the TGI in [7] was greater than 100 µM.
Consider `Cc1cc(C)c(C(=O)c2no[n+]([O-])c2C(=O)c2c(C)cc(C)c(Br)c2C)c(C)c1Br`, for which the TGI was found to be 20.3 µM in [2]; 32.6 µM in assay [3]; 27.1 µM in assay [4]; 23.3 µM in [5]; 8.42 µM in [6]; 33 µM in [7].
Consider `NCCCCNc1ccc2c(=O)[nH][nH]c(=O)c2c1`, for which the TGI in [1], in assay [2], in assay [3], in assay [4], in assay [5] and in assay [6] was greater than 100 µM each time. The TGI in assay [7] and in [8] was greater than 100 µM throughout.
Take `Nc1ccccc1C#C/C=C\C#Cc1ccccc1`: the GI50 in assay [1] is 12.8 µM; in assay [10], 12.3 µM; in assay [3], 15.3 µM; in [4] it was 48 µM; in assay [9], 12.2 µM; in assay [7] it was 15.5 µM. Further, in assay [8], the GI50 was 10.3 µM. Further, the TGI is greater than 100 µM in assay [1]; 54.1 µM in assay [10]; 31.1 µM in [3]; greater than 100 µM in assay [4]; 38.3 µM in assay [9]; 51.6 µM in assay [7]. In assay [8], this molecule yielded a TGI of 24.1 µM.
Turning to `CCn1c2ccc(O)cc2c2c(C)c3c[n+](C)ccc3c(C)c21`, the GI50 in assay [1] was 6.03 µM; in assay [10], 15.2 µM; in [2] it was 2.07 µM; in assay [3], 3.71 µM; in [4] it was 1.47 µM; in assay [9], 5.25 µM. Besides, the values for the GI50 in [7] and in assay [8] were 23.8 µM and 8.83 µM, respectively. Moreover, the TGI was greater than 100 µM in assay [1]; greater than 100 µM in assay [10]; 30.3 µM in assay [2]; 59.4 µM in assay [3]; 41.4 µM in [4]; greater than 100 µM in assay [9]. Besides, the TGI in [7] and in assay [8] was greater than 100 µM throughout.
For the molecule `CC[C@]1(O)C(=O)OCc2c1cc1n(c2=O)Cc2cc3c(N)cccc3nc2-1`, the TGI in assay [1], in assay [2], in [3], in assay [4], in [5] and in assay [6] was greater than 100 µM in each case. The TGI in [7] and in assay [8] was greater than 100 µM each time.
Take `Cc1c(C(=O)NCCN2CCOCC2)cn2ncnc(Oc3ccc(NC(=O)Nc4ccc(Cl)c(C(F)(F)F)c4)cc3)c12`: the GI50 is 0.842 µM in [10]; 1.02 µM in [2]; 1.6 µM in assay [3]; 3.1 µM in assay [4]; 0.339 µM in assay [6]; 0.601 µM in [8]. Besides, the TGI in assay [10] is 2.33 µM; in [2] it was 2.8 µM; in assay [3], 3.08 µM; in [4], greater than 100 µM; in assay [6], 2.26 µM; in assay [8], 1.94 µM.
For the molecule `OC1(c2ccccc2)OC(C#Cc2ccccc2)(c2ccccc2)c2ccccc21` (stereo unspecified), the TGI in [1] was greater than 100 µM; in assay [2], 13.2 µM; in assay [3], 10.1 µM; in [4], 5.87 µM; in assay [5], 24.1 µM; in [6], 9.39 µM. Further, the TGI came to 16.8 µM in [7] and 11.2 µM in assay [8].
With `CN1CC[C@]2(C)c3ccc(O)cc3CC3CCCC1C32C` (stereo partly specified), the TGI in assay [1], in assay [2], in [3], in assay [4], in assay [5] and in [6] was greater than 100 µM each time. For the same molecule, the TGI in [7] and in [8] was greater than 100 µM each time.
Turning to `CCC1=NC(CO)[C@H](c2ccccc2)O1` (stereo partly specified), the TGI in assay [1], in assay [2], in [3], in [4], in assay [5] and in assay [6] was greater than 100 µM throughout. The TGI in assay [7] and in assay [8] was greater than 100 µM throughout.
As for `COC1C2C=CC(C2)[C@H]1[N+](=O)[O-]` (stereo partly specified), the TGI in assay [1], in [2], in assay [3], in assay [4], in assay [5] and in [6] was greater than 100 µM throughout. Moreover, the TGI in assay [7] and in assay [8] was greater than 100 µM in each case.
With `Cc1cccc(-n2c(=S)[nH]c3c(sc(=O)n3-c3ccccc3C)c2=O)c1`, the TGI in [1], in assay [2], in assay [3], in assay [4], in assay [5] and in assay [6] was greater than 100 µM in each case. The molecule also displayed a TGI in assay [7] greater than 100 µM.
